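Cultured in 96-well plates, cells were exposed to test compound for 48 hours across five concentrations. TGI is the concentration that stops growth completely.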
Assays:
Test in all cases: NCI-60 cell line screen, 48 h
OVCAR-8 ovarian = tested on: OVCAR-8 ovarian
SF-539 CNS = tested on: SF-539 CNS
MDA-N = tested on: MDA-N
MCF7 breast = tested on: MCF7 breast
SK-MEL-2 melanoma = tested on: SK-MEL-2 melanoma
HCT-15 colon = tested on: HCT-15 colon
IGROV1 ovarian = tested on: IGROV1 ovarian
NCI-H226 lung = tested on: NCI-H226 lung
EKVX NSCLC = tested on: EKVX NSCLC
SK-OV-3 ovarian = tested on: SK-OV-3 ovarian
BT-549 breast = tested on: BT-549 breast
OVCAR-3 ovarian = tested on: OVCAR-3 ovarian
K-562 leukemia = tested on: K-562 leukemia
A549 NSCLC = tested on: A549 NSCLC
HT29 colon = tested on: HT29 colon
MDA-MB-435 = tested on: MDA-MB-435
CCRF-CEM leukemia = tested on: CCRF-CEM leukemia
NCI-H23 lung = tested on: NCI-H23 lung
RPMI-8226 leukemia = tested on: RPMI-8226 leukemia
M14 melanoma = tested on: M14 melanoma
KM12 colon = tested on: KM12 colon
UACC-62 melanoma = tested on: UACC-62 melanoma
NCI-H460 lung = tested on: NCI-H460 lung
SNB-19 CNS = tested on: SNB-19 CNS
ACHN renal = tested on: ACHN renal
MOLT-4 leukemia = tested on: MOLT-4 leukemia
HL-60(TB) leukemia = tested on: HL-60(TB) leukemia
SR leukemia = tested on: SR leukemia
U251 CNS = tested on: U251 CNS
HOP-92 NSCLC = tested on: HOP-92 NSCLC
OVCAR-4 ovarian = tested on: OVCAR-4 ovarian
OVCAR-5 ovarian = tested on: OVCAR-5 ovarian
TK-10 renal = tested on: TK-10 renal
COLO 205 colon = tested on: COLO 205 colon
SK-MEL-5 melanoma = tested on: SK-MEL-5 melanoma
HOP-62 NSCLC = tested on: HOP-62 NSCLC
LOX IMVI melanoma = tested on: LOX IMVI melanoma
DU-145 prostate = tested on: DU-145 prostate
SN12C renal = tested on: SN12C renal
HCC-2998 colon = tested on: HCC-2998 colon
UACC-257 melanoma = tested on: UACC-257 melanoma
PC-3 prostate = tested on: PC-3 prostate
SF-295 CNS = tested on: SF-295 CNS
SW-620 colon = tested on: SW-620 colon
A498 renal = tested on: A498 renal
SK-MEL-28 melanoma = tested on: SK-MEL-28 melanoma
MDA-MB-231 breast = tested on: MDA-MB-231 breast
CAKI-1 renal = tested on: CAKI-1 renal
UO-31 renal = tested on: UO-31 renal
HCT-116 colon = tested on: HCT-116 colon
NCI/ADR-RES ovarian = tested on: NCI/ADR-RES ovarian
786-0 renal = tested on: 786-0 renal
HS 578T breast = tested on: HS 578T breast
MALME-3M melanoma = tested on: MALME-3M melanoma
T-47D breast = tested on: T-47D breast
SF-268 CNS = tested on: SF-268 CNS
RXF 393 renal = tested on: RXF 393 renal
NCI-H522 lung = tested on: NCI-H522 lung

Compound: CCOC(=O)CC[C@H](NC(=O)N[C@H](C)c1ccccc1)C(=O)OCC
- TGI (OVCAR-8 ovarian): > 100 µM
- TGI (SF-539 CNS): 45.5 µM
- TGI (MDA-N): 38.2 µM
- TGI (MCF7 breast): > 100 µM
- TGI (SK-MEL-2 melanoma): 52.8 µM
- TGI (HCT-15 colon): > 100 µM
- TGI (IGROV1 ovarian): > 100 µM
- TGI (NCI-H226 lung): > 100 µM
- TGI (EKVX NSCLC): > 100 µM
- TGI (SK-OV-3 ovarian): > 100 µM
- TGI (BT-549 breast): > 100 µM
- TGI (OVCAR-3 ovarian): 41.5 µM
- TGI (K-562 leukemia): > 100 µM
- TGI (A549 NSCLC): > 100 µM
- TGI (HT29 colon): > 100 µM
- TGI (MDA-MB-435): 69.1 µM
- TGI (CCRF-CEM leukemia): 54.2 µM
- TGI (NCI-H23 lung): > 100 µM
- TGI (RPMI-8226 leukemia): > 100 µM
- TGI (M14 melanoma): 28.2 µM
- TGI (KM12 colon): > 100 µM
- TGI (UACC-62 melanoma): 34.8 µM
- TGI (NCI-H460 lung): > 100 µM
- TGI (SNB-19 CNS): > 100 µM
- TGI (ACHN renal): > 100 µM
- TGI (MOLT-4 leukemia): 52.5 µM
- TGI (HL-60(TB) leukemia): > 100 µM
- TGI (SR leukemia): > 100 µM
- TGI (U251 CNS): > 100 µM
- TGI (HOP-92 NSCLC): 39.3 µM
- TGI (OVCAR-4 ovarian): > 100 µM
- TGI (OVCAR-5 ovarian): > 100 µM
- TGI (TK-10 renal): > 100 µM
- TGI (COLO 205 colon): 32.7 µM
- TGI (SK-MEL-5 melanoma): > 100 µM
- TGI (HOP-62 NSCLC): > 100 µM
- TGI (LOX IMVI melanoma): > 100 µM
- TGI (DU-145 prostate): > 100 µM
- TGI (SN12C renal): > 100 µM
- TGI (HCC-2998 colon): 72.3 µM
- TGI (UACC-257 melanoma): 46.6 µM
- TGI (PC-3 prostate): > 100 µM
- TGI (SF-295 CNS): > 100 µM
- TGI (SW-620 colon): > 100 µM
- TGI (A498 renal): > 100 µM
- TGI (SK-MEL-28 melanoma): 43.8 µM
- TGI (MDA-MB-231 breast): > 100 µM
- TGI (CAKI-1 renal): > 100 µM
- TGI (UO-31 renal): > 100 µM
- TGI (HCT-116 colon): > 100 µM
- TGI (NCI/ADR-RES ovarian): 75.9 µM
- TGI (786-0 renal): > 100 µM

Compound: CC(C)(C)c1ccc2c(c1)C#Cc1cc(C(C)(C)C)ccc1OCCCO2
- TGI (OVCAR-8 ovarian): > 100 µM
- TGI (MDA-N): > 100 µM
- TGI (MCF7 breast): > 100 µM
- TGI (SK-MEL-2 melanoma): > 100 µM
- TGI (HS 578T breast): > 100 µM
- TGI (HCT-15 colon): > 100 µM
- TGI (IGROV1 ovarian): > 100 µM
- TGI (NCI-H226 lung): > 100 µM
- TGI (EKVX NSCLC): > 100 µM
- TGI (BT-549 breast): > 100 µM
- TGI (OVCAR-3 ovarian): > 100 µM
- TGI (K-562 leukemia): > 100 µM
- TGI (MALME-3M melanoma): > 100 µM
- TGI (A549 NSCLC): > 100 µM
- TGI (HT29 colon): > 100 µM
- TGI (MDA-MB-435): > 100 µM
- TGI (CCRF-CEM leukemia): > 100 µM
- TGI (NCI-H23 lung): > 100 µM
- TGI (RPMI-8226 leukemia): > 100 µM
- TGI (T-47D breast): > 100 µM
- TGI (M14 melanoma): > 100 µM
- TGI (KM12 colon): > 100 µM
- TGI (UACC-62 melanoma): > 100 µM
- TGI (NCI-H460 lung): > 100 µM
- TGI (SNB-19 CNS): > 100 µM
- TGI (ACHN renal): > 100 µM
- TGI (MOLT-4 leukemia): > 100 µM
- TGI (HL-60(TB) leukemia): > 100 µM
- TGI (U251 CNS): > 100 µM
- TGI (OVCAR-4 ovarian): > 100 µM
- TGI (SF-268 CNS): > 100 µM
- TGI (OVCAR-5 ovarian): > 100 µM
- TGI (TK-10 renal): > 100 µM
- TGI (COLO 205 colon): > 100 µM
- TGI (SK-MEL-5 melanoma): > 100 µM
- TGI (HOP-62 NSCLC): > 100 µM
- TGI (LOX IMVI melanoma): > 100 µM
- TGI (RXF 393 renal): > 100 µM
- TGI (DU-145 prostate): > 100 µM
- TGI (SN12C renal): > 100 µM
- TGI (UACC-257 melanoma): > 100 µM
- TGI (PC-3 prostate): > 100 µM
- TGI (SF-295 CNS): > 100 µM
- TGI (SW-620 colon): > 100 µM
- TGI (A498 renal): > 100 µM
- TGI (SK-MEL-28 melanoma): > 100 µM
- TGI (MDA-MB-231 breast): > 100 µM
- TGI (CAKI-1 renal): > 100 µM
- TGI (UO-31 renal): > 100 µM
- TGI (NCI-H522 lung): > 100 µM
- TGI (HCT-116 colon): > 100 µM
- TGI (NCI/ADR-RES ovarian): > 100 µM
- TGI (786-0 renal): > 100 µM

From PubChem BioAssay (NCI)
